US20180311342A1, “IMMUNOSTIMULATING AGENT” (AJINOMOTO CO., INC., priority 2017, published 2018)

Test system: anti-OVA-specific IgG1 and IgG2a subclass antibody production
Assay: Evaluation test of adjuvant activity (overall conclusion from anti-OVA IgG1 and IgG2a production)
Format: in vivo, BALB/c mice
Experimental: 8-Week-old female BALB/c mice were divided into groups (N=6), and each group was primarily immunized by dorsal-subcutaneous administration of (1) ovalbumin (OVA) (5 μg) dissolved in saline as an antigen (OVA single administration group), (2) OVA 5 μg and Addavax™ (mixed with saline at 1:1) dissolved in saline (Addavax™ administration group) as positive control adjuvant, (3) OVA 5 μg and SZ137 0.256 μmol dissolved or dispersed in 5% α-cyclodextrin (hereinafter to be simply referred to as αCD)-added saline (SZ137 administration group), (4) OVA (5 μg) and SZ138 (0.256 μmol) dissolved or dispersed in 5% αCD-added saline (SZ138 administration group), (5) OVA (5 μg) and SZ142 (0.256 μmol) dissolved or dispersed in 5% αCD-added saline (SZ142 administration group), (6) OVA (5 μg) and SZ144 (0.256 μmol) dissolved or dispersed in 5% αCD-added saline (SZ144 administration group), (7) OVA (5 μg) and SZ145 (0.256 μmol) dissolved or dispersed in 5% αCD-added saline (SZ145 administration group), (8) OVA (5 μg) and SZ146 (0.256 μmol) dissolved or dispersed in 5% αCD-added saline (SZ146 administration group), (9) OVA (5 μg) and SZ147 (0.256 μmol) dissolved or dispersed in 5% αCD-added saline (SZ147 administration group), (10) OVA (5 μg) and SZ148 (0.256 μmol) dissolved or dispersed in 5% αCD-added saline (SZ148 administration group), each per mouse. Two week later, the secondary immunization was carried out by dorsal-subcutaneous administration of solutions or dispersions similar to those of the above-mentioned (1)-(10) again. […]
To a 96 well plate was added 5 μg/ml OVA at 100 µl/well, and the mixture was incubated at 4° C. overnight. After incubation, the mixture was washed three times with 200 μl of PBS-T (PBS (phosphate buffered saline)+0.05% (v/v) Tween 20) per well, and blocked with 100 μl of 5% FCS (fetal calf serum)/PBS solution per well at room temperature for 1-2 hr. Thereafter, the mixture was washed three times with PBS-T (200 μl/well), a diluted serum sample (100 l/well) or the same amount of 5% FCS/PBS solution as a control was added, and the mixture was incubated at 37° C. for 1 hr. To calculate concentration of the antibody, the standard of an anti-OVA-specific IgG1 subclass antibody diluted with 2% FCS/PBS solution was added at 100 ng/ml, 50 ng/ml, 25 ng/ml, 12.5 ng/ml, 6.25 ng/ml, 3.125 ng/ml, 1.56 ng/ml, 0.781 ng/ml, 0.391 ng/ml, 0.195 ng/ml, 0.098 ng/ml, 0 ng/ml, per 1 well. When an anti-OVA-specific IgG2a subclass antibody was measured, the standard of an anti-OVA-specific IgG2a subclass antibody was added at 50 ng/ml, 25 ng/ml, 12.5 ng/ml, 6.25 ng/ml, 3.125 ng/ml, 1.56 ng/ml, 0.781 ng/ml, 0.391 ng/ml, 0.195 ng/ml, 0.098 ng/ml, 0.049 ng/ml, 0 ng/ml, per 1 well. Thereafter, similar to the samples, the mixture was washed five times with PBS-T (200 μl/well), a diluted biotinylated anti-mouse IgG1 antibody and IgG2a antibody were added (100 μl/well), and the mixture was incubated at 37° C. for 45 min. Thereafter, the mixture was washed five times with PBS-T (200 μl/well), a diluted anti-biotin-HRP antibody was added (100 μl/well), and the mixture was incubated at 37° C. for another 30 min. Thereafter, the mixture was washed five times with PBS-T (200 μl/well), TMB substrate solution was added (100 μl/well), and the mixture was incubated at room temperature for 10-15 min. Thereafter, a reaction quenching liquid (2N sulfuric acid solution) was added (50 l/well) to discontinue a color developing reaction, and the absorbance (OD Value=450 nm) was measured by a microplate reader. A standard curve was drawn from the measured OD values, and the concentration was calculated. […]

[1] = conclusion from IgG1/IgG2a after primary immunization, compound 0.256 μmol in 5% αCD-added saline with OVA 5 μg, dorsal-subcutaneous
[2] = conclusion from IgG1/IgG2a after secondary immunization, compound 0.256 μmol in 5% αCD-added saline with OVA 5 μg, dorsal-subcutaneous

| Structure (SMILES) | adjuvant activity [1] | adjuvant activity [2] | adjuvant activity (Experimental Example 4: conclusion from IgG1/IgG2a after secondary immunization, compound dissolved in saline) |
| --- | --- | --- | --- |
| CCCCCCCCCCCCNC(=O)N[C@@H](CCCNC(=N)N)C(=O)NCCCCCCCCCCCC.Cl [SZ212, (2S)—N-dodecyl-2-(dodecylcarbamoylamino)-5-guanidino-pentanamide hydrochloride] | have an adjuvant activity | have an adjuvant activity | – |
| CCCCCCCCCCCCCCCCNC(=O)N[C@@H](CCCCN)C(=O)NCCCCCCCC.Cl [SZ213, (2S)-6-amino-2-(hexadecylcarbamoylamino)-N-octyl-hexanamide hydrochloride] | have an adjuvant activity | have an adjuvant activity | – |
| CCCCCCCCCCCCCCCCOC(=O)N[C@@H](CCCCN)C(=O)NCCCCCCCC.Cl [SZ188, hexadecyl N-[(1S)-5-amino-1-(octylcarbamoyl)pentyl]carbamate hydrochloride] | have an adjuvant activity | have an adjuvant activity | – |
| CCCCCCCCCCCCCCCCCCCCCC(=O)NCCc1ccncc1.Cl [SZ209, N-[2-(4-pyridyl)ethyl]docosanamide hydrochloride] | have an adjuvant activity | have an adjuvant activity | – |
| CCCCCCCCCCCCCCCC(=O)N[C@@H](CC(C)C)C(=O)NCCCCCCCC [SZ199, N-[(1S)-3-methyl-1-(octylcarbamoyl)butyl]hexadecanamide] | have an adjuvant activity | have an adjuvant activity | – |
| CCCCCCCCCCCCCCCC(=O)N[C@@H](CCCCN)C(=O)NCCCCCCCCCCCC.Cl [SZ153, N-[(1S)-5-amino-1-(dodecylcarbamoyl)pentyl]hexadecanamide hydrochloride] | – | have an adjuvant activity | – |
| CCCCCCCCCCCCCCCCCCCCCC(=O)NC(C)(C)C(=O)NCCCCCCCCCCCC [SZ146, N-[2-(dodecylamino)-1,1-dimethyl-2-oxo-ethyl]docosanamide] | – | have an adjuvant activity | – |
| CCCCCCCCCCCCCCCCCC(=O)N[C@@H](CCCCNC(=N)N)C(=O)NCCCCCC.Cl [SZ206, N-[(1S)-1-(hexylcarbamoyl)-5-guanidino-pentyl]octadecanamide hydrochloride] | have an adjuvant activity | have an adjuvant activity | – |
| CCCCCCCCCCCCCCCCNC(=O)N[C@H](CCCNC(=N)N)C(=O)NCCCCCCCCCCCC.Cl [SZ193, (2R)—N-dodecyl-5-guanidino-2-(hexadecylcarbamoylamino)pentanamide hydrochloride] | have an adjuvant activity | have an adjuvant activity | – |
| CCCCCCCCCCCCCCCCCC(=O)NCC(C)(C)C(=O)NCCCCCCCCCCCC [SZ204, N-[3-(dodecylamino)-2,2-dimethyl-3-oxo-propyl]octadecanamide] | have an adjuvant activity | have an adjuvant activity | – |
| CCCCCCCCCCCCCCCCCCCCCC(=O)N[C@@H](CCCCNC(C)=O)C(=O)NCCCCCCCCCCCC [SZ167, N-[(1S)-5-acetamide-1-(dodecylcarbamoyl)pentyl]docosanamide] | – | have an adjuvant activity | – |
| CCCCCCCCCCCCCCCCCCCCCC(=O)NCC(C)(C)C(=O)NCCCCCCCCCCCC [SZ148, N-[3-(dodecylamino)-2,2-dimethyl-3-oxo-propyl]docosanamide] | – | have an adjuvant activity | – |
| CCCCCCCCCCCCCCCCNC(=O)N[C@@H](CCCNC(=N)N)C(=O)NCCCCCC.Cl [SZ168, (2S)-5-guanidino-2-(hexadecylcarbamoylamino)-N-hexyl-pentanamide hydrochloride] | – | have an adjuvant activity | – |
| CCCCCCCCCCCCCCCC(=O)N[C@H](CCCCN)C(=O)NCCCCCCCCCCCC.Cl [SZ194, N-[(1R)-5-amino-1-(dodecylcarbamoyl)pentyl]hexadecanamide hydrochloride] | have an adjuvant activity | have an adjuvant activity | – |
| CCCCCCCCCCCCCCCCCC(=O)N[C@@H](CCCCN)C(=O)NCCCCCCCC.Cl [SZ184, N-[(1S)-5-amino-1-(octylcarbamoyl)pentyl]octadecanamide hydrochloride] | have an adjuvant activity | have an adjuvant activity | – |
| CCCCCCCCCCCCCCCCOC(=O)N[C@@H](CC(C)C)C(=O)NCCCCCCCC [SZ203, hexadecyl N-[(1S)-3-methyl-1-(octylcarbamoyl)butyl]carbamate] | have an adjuvant activity | have an adjuvant activity | – |
| CCCCCCCCCCCCCCCC(=O)N[C@@H](CCCNC(=N)N)C(=O)NCCCCCCCCCCCC.Cl [SZ111, N-[(1S)-1-(dodecylcarbamoyl)-4-guanidino-butyl]hexadecanamide hydrochloride] | – | has an adjuvant activity | has an adjuvant activity |
| CCCCCCCCCCCCCCCCCCCCCC(=O)N[C@@H](CC(C)C)C(=O)NCCCCCCCCCCCC [SZ197, N-[(1S)-1-(dodecylcarbamoyl)-3-methyl-butyl]docosanamide] | have an adjuvant activity | have an adjuvant activity | – |
| CCCCCCCCCCCCCCCCCCCCCC(=O)N[C@@H](CC(C)C)C(=O)NCCCCCCCCCCC [SZ142, N-[(1S)-3-methyl-1-(undecylcarbamoyl)butyl]docosanamide] | – | have an adjuvant activity | – |
| CCCCCCCCCCCCCCCCCC(=O)N[C@@H](CCCCN)C(=O)NCCCCCCCCCCCC.Cl [SZ185, N-[(1S)-5-amino-1-(dodecylcarbamoyl)pentyl]octadecanamide hydrochloride] | have an adjuvant activity | have an adjuvant activity | – |
| CCCCCCCCCCCCCCCCCCCC(=O)N[C@@H](CCCNC(=N)N)C(=O)NCCCCCCCC.Cl [SZ183, N-[(1S)-4-guanidino-1-(octylcarbamoyl)butyl]icosanamide hydrochloride] | have an adjuvant activity | have an adjuvant activity | – |
| CCCCCCCC/C=C/CCCCCCCC(=O)N[C@@H](CCCNC(=N)N)C(=O)NCCCCCCCCCCCC.Cl [SZ161, (E)-N-[(1S)-1-(dodecylcarbamoyl)-4-guanidino-butyl]octadeca-9-enamide hydrochloride] | – | have an adjuvant activity | – |
| CCCCCCCCCCCCCCCCCCCCCC(=O)N[C@@H](CCCCNC(=N)N)C(=O)NCCCCCC.Cl [SZ170, N-[(1S)-5-guanidino-1-(hexylcarbamoyl)pentyl]docosanamide hydrochloride] | – | have an adjuvant activity | – |
| CCCCCCCCCCCCCCCCNC(=O)N[C@@H](CCCNC(=N)N)C(=O)NCCCCCCCC.Cl [SZ210, (2S)-5-guanidino-2-(hexadecylcarbamoylamino)-N-octyl-pentanamide hydrochloride] | have an adjuvant activity | have an adjuvant activity | – |
| CCCCCCCCCCCCCCCCCC(=O)N[C@@H](CC(C)C)C(=O)NCCCCCCCCCCCC [SZ195, N-[(1S)-1-(dodecylcarbamoyl)-3-methyl-butyl]octadecanamide] | have an adjuvant activity | have an adjuvant activity | – |
